According to the OPERA property sets (Mansouri et al. 2018):

Conditions: not given

Row | Structure (SMILES) | melting point | boiling point | ready biodegradability | log10 biodegradation half-life (days) | log10 vapour pressure (mmHg) | log10 Koc (L/kg) | log10 Henry constant (atm·m³/mol) | log10 Koa
1 | OCCCCCCCCO | 63 °C | – | – | – | – | – | – | –
2 | O=C(CCl)OCCOC(=O)CCl | 45.5 °C | – | – | – | – | – | – | –
3 | CC(=O)c1ccc(Br)cc1 | 50.5 °C | 257 °C | – | – | – | – | – | –
4 | O=C(O)C(F)(F)C(F)(F)F | – | 96.5 °C | – | – | – | – | – | –
5 | Pc1ccccc1 | – | 160 °C | – | – | – | – | – | –
6 | COc1cc(OC)cc(OC)c1 | 54.5 °C | 256 °C | – | – | – | – | – | –
7 | CCCCP(=O)(CCCC)CCCC | 64 °C | – | – | – | – | – | – | –
8 | CN(C)C(=O)Nc1ccc(SC(F)(F)Cl)c(Cl)c1 | 114 °C | – | – | – | – | – | – | –
9 | Cc1ccc2sccc2c1 | 20.5 °C | – | – | – | – | – | – | –
10 | CCCCCCCCCCCCCCCCCCNC(=O)N1CC1 | – | – | not readily biodegradable | – | – | – | – | –
11 | Cc1ccc(CBr)cc1 | 35 °C | 220 °C | – | – | – | – | – | –
12 | CCCCCCCCCCCCCCCCCCCCCCCCCCCC | 64.5 °C | 432 °C | readily biodegradable | 2.1 | -8.8 | – | – | –
13 | CCCCc1ccccc1 | -87.9 °C | 183 °C | not readily biodegradable | – | 0.027 | 3.39 | – | –
14 | CCC(C)(O)CC | -23.6 °C | 122 °C | – | – | 0.745 | – | – | –
15 | CC[N+](C)(CC)CCOC(=O)C1c2ccccc2Oc2ccccc21.[Br-] | 174 °C | – | – | – | – | – | – | –
16 | CCCCCCC(C(=O)OCC)C(=O)OCC | – | 269 °C | – | – | – | – | – | –
17 | Clc1ccc(Oc2ccc(Cl)c(Cl)c2)cc1 | – | – | – | – | -3.98 | – | – | –
18 | Cc1cc2c(cc1O)[C@@]1(C)CCCC(C)(C)[C@@H]1CC2=O | 250 °C | – | – | – | – | – | – | –
19 | CC1CC(C)NC(C)C1 (centres undefined) | – | 145 °C | – | – | – | – | – | –
20 | C=CCC1(CC=C)C(=O)NC(=O)NC1=O | 172 °C | – | – | – | – | – | – | –
21 | C=C(C)C(OC(C)=O)OC(C)=O | – | 191 °C | – | – | – | – | – | –
22 | CCCCCCN | -22.9 °C | 133 °C | readily biodegradable | – | 0.954 | – | -4.57 | –

Row | Structure (SMILES) | melting point | boiling point | ready biodegradability | log10 biodegradation half-life (days) | log10 vapour pressure (mmHg) | log10 Koc (L/kg) | log10 Henry constant (atm·m³/mol) | log10 Koa
23 | Cc1cc2nc3c(=O)[nH]c(=O)nc-3n(C[C@H](O)[C@H](O)[C@H](O)CO)c2cc1C | – | – | not readily biodegradable | – | – | – | – | –
24 | OC1CCCCC1c1ccccc1 (centres undefined) | – | 228 °C | – | – | -1.44 | – | – | –
25 | Nc1ncc(C=O)s1 | – | – | readily biodegradable | – | – | – | – | –
26 | CCCCOCCOCCOC(C)=O | -32 °C | 245 °C | readily biodegradable | – | -1.4 | – | – | –
27 | c1ccc2nccnc2c1 | 28 °C | 230 °C | – | – | – | – | – | –
28 | COc1ccc(C(=O)O)cc1O | 252 °C | – | – | – | – | – | – | –
29 | O=S(=O)(O)c1ccc(O)c2ncccc12 | 322 °C | – | – | – | – | – | – | –
30 | CC(C)c1ccccc1C(=O)O | – | – | – | – | -3.46 | – | – | –
31 | CCOC(=O)CCC=O | – | 162 °C | – | – | – | – | – | –
32 | Clc1ccc(C(c2ccccc2Cl)C(Cl)(Cl)Cl)cc1 (centres undefined) | – | – | – | – | -5.87 | – | – | 9.45
33 | CC(=O)OCC(=O)[C@@]1(O)CC[C@H]2[C@@H]3C[C@H](C)C4=CC(=O)C=C[C@]4(C)[C@H]3[C@@H](O)C[C@@]21C | 206 °C | – | – | – | – | – | – | –
34 | FC1=C(F)C(F)(F)C1(F)F | -60 °C | 5.5 °C | – | – | – | – | – | –
35 | COC(=O)C(C)Cl (centres undefined) | – | 132 °C | readily biodegradable | – | – | – | – | –
36 | COc1ccc(Cl)nn1 | 84.5 °C | – | – | – | – | – | – | –
37 | Clc1c(Cl)c(Cl)c(Cl)c(Cl)c1Cl | 232 °C | 325 °C | not readily biodegradable | – | -4.74 | 3.74 | -2.77 | 7.38
38 | C#CC(=C)C | -113 °C | 32 °C | – | – | – | – | – | –
39 | O=C1c2ccccc2C(=O)C1c1ccccc1 | 150 °C | – | – | – | – | – | – | –
40 | O=C(O)CCOc1ccccc1 | 97.5 °C | 240 °C | – | – | – | – | – | –
41 | O=C(Oc1ccccc1)Oc1ccccc1 | 83 °C | 306 °C | – | – | -3.82 | – | – | –
42 | CC=C(C(=O)OC)C(=O)OC | – | – | readily biodegradable | – | – | – | – | –
43 | CCCCN | -50 °C | 78 °C | readily biodegradable | – | 1.97 | 1.88 | -4.76 | 3.61
44 | O=C(CCCN1CC=C(n2c(=O)[nH]c3ccccc32)CC1)c1ccc(F)cc1 | 146 °C | – | – | – | – | – | – | –

Row | Structure (SMILES) | melting point | boiling point | ready biodegradability | log10 biodegradation half-life (days) | log10 vapour pressure (mmHg) | log10 Koc (L/kg) | log10 Henry constant (atm·m³/mol) | log10 Koa
45 | C[N+]1(CCC(C(N)=O)(c2ccccc2)c2ccccc2)CCCCC1.[Br-] | 178 °C | – | – | – | – | – | – | –
46 | ClC1OCCOC1Cl (centres undefined) | 30 °C | – | – | – | – | – | – | –
47 | CC(C)Oc1ccc(C(=O)NS(=O)(=O)c2ccc(N)cc2)cc1 | 172 °C | – | – | – | – | – | – | –
48 | CCC(C)CCC(C)(O)CC (centres undefined) | -67.5 °C | 202 °C | – | – | – | – | – | –
49 | c1ccc(C2=NCCN2)cc1 | 96.5 °C | – | – | – | – | – | – | –
50 | O=C(O)c1cc(Cl)cc(Cl)c1 | 188 °C | – | – | – | – | – | – | –
51 | C/C(=C\C(=O)O)C1CCCCC1 | 85.5 °C | – | – | – | – | – | – | –
52 | CNC(=O)NC(C)=O | 180 °C | – | – | – | – | – | – | –
53 | NCCc1cnc[nH]1 | 86 °C | – | – | – | – | – | – | –
54 | Cc1cc(C(=O)C(F)(F)F)ccc1Cl | – | – | not readily biodegradable | – | – | – | – | –
55 | COc1cc(O)ccc1O | 90 °C | – | – | – | – | – | – | –
56 | Clc1cc(Cl)c(-c2cccc(Cl)c2Cl)cc1Cl | – | – | – | – | – | 5.69 | -4.13 | –
57 | CC(C)(C)c1nnc(NS(=O)(=O)c2ccc(N)cc2)s1 | 222 °C | – | – | – | – | – | – | –
58 | CCOc1cccc(OCC)c1 | 12.4 °C | 235 °C | – | – | – | – | – | –
59 | CCS(=O)(=O)Cl | – | 174 °C | – | – | – | – | – | –
60 | CCCOC(=O)CCC | -95.2 °C | 143 °C | – | – | 0.775 | – | – | –
61 | O=S(O)c1ccccc1 | 84 °C | – | not readily biodegradable | – | – | – | – | –
62 | C=C[C@H]1CN2CCC1C[C@@H]2[C@@H](O)c1ccnc2ccccc12 (some centres undefined) | 238 °C | – | – | – | – | – | – | –
63 | O=S1(=O)CC=CC1 | 64.5 °C | – | – | – | – | – | – | –
64 | CCC(Oc1ccccc1)C(=O)O (centres undefined) | 98 °C | 258 °C | – | – | – | – | – | –
65 | C=CCNC | – | 65 °C | – | – | – | – | – | –
66 | CCON=C(CC)C1=C(O)CC(c2c(C)cc(C)cc2C)CC1=O (centres undefined) | 106 °C | – | – | – | -8.56 | – | – | –

Row | Structure (SMILES) | melting point | boiling point | ready biodegradability | log10 biodegradation half-life (days) | log10 vapour pressure (mmHg) | log10 Koc (L/kg) | log10 Henry constant (atm·m³/mol) | log10 Koa
67 | CN(C)c1ccc(C(O)(c2ccccc2)c2ccc(N(C)C)cc2)cc1 | 113 °C | – | – | – | – | – | – | –
68 | Cc1cc(C(C)(C)C)cc(C)c1O | 82.4 °C | 248 °C | – | – | – | – | – | –
69 | Nc1ccc(Cl)cc1N | 76 °C | 229 °C | – | – | – | – | – | –
70 | O=Cc1ccc(O)cc1O | 135 °C | – | – | – | – | – | – | –
71 | O=C1CN=C(c2ccccc2)c2cc([N+](=O)[O-])ccc2N1 | 225 °C | – | – | – | – | – | – | –
72 | C=C(Br)c1ccccc1 | -44 °C | – | not readily biodegradable | – | – | – | – | –
73 | CC(C)CCNCCC(C)C | -44 °C | 188 °C | – | – | – | – | – | –
74 | Cc1cc(N)ccc1N=Nc1ccc([N+](=O)[O-])cc1 | – | – | – | – | -9.15 | – | – | –
75 | NS(=O)(=O)c1ccc(S(=O)(=O)CCO)c(F)c1 | 165 °C | – | – | – | – | – | – | –
76 | N#CCCC(Br)(C#N)CBr (centres undefined) | 52 °C | – | – | – | – | – | – | –
77 | O=C(O)C(Cc1ccccc1)C(=O)O | 121 °C | – | – | – | – | – | – | –
78 | Fc1c(F)c(F)c(Cl)c(F)c1F | – | 118 °C | – | – | 1.25 | – | – | –
79 | COc1cc2c(c(OC)c1OC)-c1ccc(O)c(=O)cc1[C@@H](NC(C)=O)CC2 | 178 °C | – | – | – | – | – | – | –
80 | CCCCCCCCCCCCCCCc1ccccc1 | 22 °C | 373 °C | – | – | -5.14 | – | – | –
81 | N#CCCCl | -51 °C | 176 °C | – | – | – | – | – | –
82 | O=[N+]([O-])c1ccc(O)cc1C(F)(F)F | 76 °C | – | – | – | – | 2.11 | – | –
83 | O=C1NCc2ccccc21 | 151 °C | 338 °C | – | – | – | – | – | –
84 | Nc1cccc(N)n1 | 122 °C | 285 °C | not readily biodegradable | – | – | – | – | –
85 | CCC=CCC | -114 °C | 66.8 °C | – | – | 2.22 | – | – | –
86 | N#CCC#N | 32 °C | 218 °C | – | – | -0.698 | – | – | –
87 | CCC[C@H]1CCCCN1 | – | 166 °C | – | – | – | – | – | –
88 | O=C(O)CCCOc1ccc(Cl)cc1Cl | 118 °C | 324 °C | – | – | – | – | – | –

Same assay, conditions: fish

Row | Structure (SMILES) | log10 biotransformation half-life (days) | log10 BCF
89 | Clc1ccc(C(c2ccccc2Cl)C(Cl)(Cl)Cl)cc1 (centres undefined) | 1.71 | –
90 | Clc1cc(Cl)c2c(oc3c(Cl)cc(Cl)c(Cl)c32)c1Cl | – | 2.96
91 | Clc1c(Cl)c(Cl)c(Cl)c(Cl)c1Cl | 2.44 | 4.33
92 | Clc1cc(Cl)c(-c2cccc(Cl)c2Cl)cc1Cl | 2.55 | –
